Patent US7199147B2, “Rho kinase inhibitors” (Dainippon Sumitomo Pharma Co., Ltd., priority 2001, dated 2007)
Where a name gives a salt, the structure may show the parent alone.

| melting point | Structure (SMILES) |
| --- | --- |
| 242 to 245 °C (dec.) | O=C(O)C(F)(F)F.c1cc2[nH]ncc2cc1NC1CCOCC1 |
| 187 to 189 °C | O=C(NC1CCN(Cc2ccccc2)C1)c1ccc2[nH]ncc2c1 (centres unmarked) |
| 203 to 204 °C | O=C(NC1CCCN(Cc2ccccc2)C1)c1ccc2[nH]ncc2c1 (centres unmarked) |
| 265 to 266 °C | O=C(NC1CCCNC1)c1ccc2[nH]ncc2c1 (centres unmarked) |
| 158 to 159 °C | CCOC(=O)N1C2CCC1CC(Nc1ccc3[nH]ncc3c1)C2 (centres unmarked) |
| 228 to 229 °C | CN1CCCC(NC(=O)c2ccc3[nH]ncc3c2)C1 (centres unmarked) |
| 193 to 195 °C (dec.) | CC(=O)N1CCC(Nc2ccc3[nH]ncc3c2)CC1 |
| 219 to 220 °C (dec.) | CS(=O)(=O)N1CCC(Nc2ccc3[nH]ncc3c2)CC1 |
| 182 to 183 °C | CCS(=O)(=O)N1CCC(Nc2ccc3[nH]ncc3c2)CC1 |
| 132 to 136 °C | O=S(=O)(c1ccccc1)N1CCC(Nc2ccc3[nH]ncc3c2)CC1 |
| 140 to 141 °C | CN(CCC(=O)Nc1ccc2[nH]ncc2c1)Cc1ccccc1 |
| 152 to 153 °C | CN(C)CCC(=O)Nc1ccc2[nH]ncc2c1 |
| 178 to 179 °C | O=C(CCN1CCCCC1)Nc1ccc2[nH]ncc2c1 |
| 215 to 216 °C (dec.) | CC(C)CCC(=O)Nc1ccc2[nH]ncc2c1 |
| 173 to 174 °C | COCCC(=O)Nc1ccc2[nH]ncc2c1 |
| 243 to 244 °C (dec.) | O=C(CCC(F)(F)F)Nc1ccc2[nH]ncc2c1 |
| 140 to 141 °C | CC(C)N1CCC(Nc2ccc3[nH]ncc3c2)CC1 |
| 167 to 169 °C | O=C(CCOCc1ccccc1)Nc1ccc2[nH]ncc2c1 |
| 112 to 114 °C | CN(CCCNc1ccc2[nH]ncc2c1)Cc1ccccc1 |
| 120 to 123 °C | O=S(=O)(Nc1ccc2[nH]ncc2c1)C1CCNCC1 |
| 162 to 165 °C | c1cc(OC2CCNCC2)c2cn[nH]c2c1 |
| 124 to 126 °C | CC(C)CCCOc1ccc2[nH]ncc2c1 |
| 151 to 153 °C | CC(C)COc1ccc2[nH]ncc2c1 |
| 218 to 220 °C (dec.) | O=C(O)CCC(=O)Nc1ccc2[nH]ncc2c1 |
| 158 to 161 °C | N#Cc1cccc(COc2ccc3[nH]ncc3c2)c1 |

| melting point | Structure (SMILES) |
| --- | --- |
| 159 to 160 °C | CN(CC(=O)Nc1ccc2[nH]ncc2c1)Cc1ccccc1 |
| 144 to 146 °C | c1cc2[nH]ncc2cc1OC1CCCCC1 |
| 141 to 142 °C | c1cc2[nH]ncc2cc1OC1CCCC1 |
| 197 to 198 °C | NCc1ccc(COc2ccc3[nH]ncc3c2)cc1 |
| 179 to 183 °C | NCc1cccc(COc2ccc3[nH]ncc3c2)c1 |
| 125 to 126 °C | CC(C)N1CCC(Oc2ccc3[nH]ncc3c2)CC1 |
| 189 to 190 °C | O=C(CN1CCCCC1)Nc1ccc2[nH]ncc2c1 |
| 147 to 148 °C | OC1CCC(Oc2ccc3[nH]ncc3c2)C1 (centres unmarked) |
| 159 to 160 °C | c1cc2[nH]ncc2cc1OC1CCCNCC1 (centres unmarked) |
| 115 to 117 °C | CN(CCCC(=O)Nc1ccc2[nH]ncc2c1)Cc1ccccc1 |
| 194 to 196 °C | O=C1c2ccccc2C(=O)N1[C@H]1CC[C@@H](Oc2ccc3[nH]ncc3c2)CC1 |
| 144 to 146 °C | N[C@H]1CC[C@@H](Oc2ccc3[nH]ncc3c2)CC1 |
| 144 to 146 °C | CNc1ccc2[nH]ncc2c1 |
| 152 to 154 °C | CN(c1ccc2[nH]ncc2c1)C1CCN(Cc2ccccc2)CC1 |
| 148 to 149 °C | COc1ccc2[nH]ncc2c1C |
| 157 to 159 °C | Cc1c(OC2=CC=CNC=C2)ccc2[nH]ncc12 |
| 150 to 152 °C | Cc1c(O[C@H]2CC[C@H](N)CC2)ccc2[nH]ncc12 |
| 175 to 177 °C | CN(c1ccc2[nH]ncc2c1)C1CCNCC1 |
| 150 to 151 °C | CCN[C@H]1CC[C@H](Oc2ccc3[nH]ncc3c2C)CC1 |
| 183 to 185 °C | Cc1c(OC2CCCNC2)ccc2[nH]ncc12 (centres unmarked) |
| 134 to 136 °C | Cc1c(OC2CCN(C(C)C)CC2)ccc2[nH]ncc12 |
| 140 to 143 °C | Cc1c(OC2CCN(C3CCCC3)CC2)ccc2[nH]ncc12 |
| 138 to 140 °C | c1cc2[nH]ncc2cc1OC1CCCN(C2CCCC2)CC1 (centres unmarked) |
| 126 to 131 °C | Cc1c(OC2CCCN(C3CCCC3)CC2)ccc2[nH]ncc12 (centres unmarked) |
| 166 to 168 °C | Cc1c(O[C@H]2CC[C@@H](NC(C)C)CC2)ccc2[nH]ncc12 |

| melting point | Structure (SMILES) |
| --- | --- |
| 153 to 155 °C | Cc1c(O[C@H]2CC[C@@H](NC3CCCC3)CC2)ccc2[nH]ncc12 |
| 161 to 163 °C | CC(=O)N1CCC(Oc2ccc3[nH]ncc3c2C)CC1 |
| 190 to 191 °C | O=C(c1ccc2[nH]ncc2c1)N1CCNCC1 |
| 147 to 149 °C | c1ccc(CN2CCN(Cc3ccc4[nH]ncc4c3)CC2)cc1 |
| 291 to 293 °C (dec.) | CS(=O)(=O)N1CCC(C(=O)Nc2ccc3[nH]ncc3c2)CC1 |
| 286 to 288 °C (dec.) | O=C(Nc1ccc2[nH]ncc2c1)C1CCOCC1 |
| 236 to 238 °C | c1cc2[nH]ncc2cc1NC1CC2CCC(C1)N2 (centres unmarked) |
| 293 to 294 °C (dec.) | c1cc2[nH]ncc2cc1NCC1CCOCC1 |
| 285 to 286 °C | O=C(NC1CCOCC1)c1ccc2[nH]ncc2c1 |
| 184 to 188 °C | Cl.Cl.c1cc2[nH]ncc2cc1NC1CN2CCC1CC2 (centres unmarked) |
| 154 to 157 °C | Cl.Cl.OCCN1C2CCC1CC(Nc1ccc3[nH]ncc3c1)C2 (centres unmarked) |
| 198 to 203 °C | CCCN1C2CCC1CC(Nc1ccc3[nH]ncc3c1)C2.Cl.Cl (centres unmarked) |
| 183 to 185 °C | COc1ccc2ccccc2c1CNc1ccc2[nH]ncc2c1 |
| 195 to 197 °C | O=C(CC1CCN(Cc2ccccc2)CC1)Nc1ccc2[nH]ncc2c1 |
| 126 to 128 °C | CSc1c(O)ccc2[nH]ncc12 |
| 169 to 172 °C | O=C(C=C1CCN(Cc2ccccc2)CC1)Nc1ccc2[nH]ncc2c1 |
| 211 to 212 °C | CSc1c(O[C@H]2CC[C@@H](N3C(=O)c4ccccc4C3=O)CC2)ccc2[nH]ncc12 |
| 155 to 156 °C | CCC(=O)N[C@H]1CC[C@@H](Oc2ccc3[nH]ncc3c2SC)CC1 |
| 146 to 148 °C | CSc1c(O[C@H]2CC[C@@H](NC(=O)c3ccccc3)CC2)ccc2[nH]ncc12 |
| 117 to 118 °C | c1ccc(CN2CCC(CCNc3ccc4[nH]ncc4c3)CC2)cc1 |
| 184 to 186 °C (dec.) | c1cc2[nH]ncc2cc1NCCC1CCNCC1 |
| 196 to 198 °C (dec.) | c1ccc(CN2CCN(c3ccc4[nH]ncc4c3)CC2)cc1 |
| 234 to 235 °C (dec.) | CN(C)C(=O)c1ccccc1Nc1ccc2[nH]ncc2c1 |
| 257 to 260 °C (dec.) | Cl.Cl.c1ccc(CN2CCC(Nc3cccc4[nH]ncc34)CC2)cc1 |
| 270 to 271 °C | Cl.Cl.c1cc(NC2CCNCC2)c2cn[nH]c2c1 |

| melting point | Structure (SMILES) |
| --- | --- |
| 196 to 197 °C (dec.) | c1cc2cn[nH]c2cc1NC1CCNCC1 |
| 116 to 117 °C | Cn1ncc2cc(NC3CCN(Cc4ccccc4)CC3)ccc21 |
| 111 to 113 °C | Cn1ncc2cc(NC3CCNCC3)ccc21 |
| 108 to 110 °C | Cn1cc2cc(NC3CCN(Cc4ccccc4)CC3)ccc2n1 |
| 144 to 147 °C | Cn1cc2cc(NC3CCNCC3)ccc2n1 |
| 160 to 162 °C | Cc1n[nH]c2ccc(NC3CCN(Cc4ccccc4)CC3)cc12 |
| 175 to 177 °C | Cc1n[nH]c2ccc(NC3CCNCC3)cc12 |
| 89 to 90 °C | c1ccc(CN2CCC(Nc3ccc4oncc4c3)CC2)cc1 |
| 130 to 131 °C | COc1c(OS(C)(=O)=O)ccc2[nH]ncc12 (as salt: methanesulfonate) |
| 166 to 168 °C | N[C@H]1CCC[C@@H](Oc2cccc3[nH]ncc23)C1 (relative stereo) |
| 197 to 198 °C | O=C1c2ccccc2C(=O)N1[C@H]1CCC[C@H](Oc2ccc3[nH]ncc3c2)C1 (relative stereo) |
| 179 to 180 °C | N[C@H]1CCC[C@H](Oc2ccc3[nH]ncc3c2)C1 (relative stereo) |
| 134 to 135 °C | CN(C)[C@H]1CCC[C@H](Oc2ccc3[nH]ncc3c2)C1 (relative stereo) |
| 116 to 118 °C | CCN[C@H]1CCC[C@H](Oc2ccc3[nH]ncc3c2)C1 (relative stereo) |
| 156 to 160 °C | Cc1c(O[C@H]2CCC[C@H](N)C2)ccc2[nH]ncc12 (relative stereo) |
| 142 to 144 °C | N[C@H]1CCC[C@H](Oc2ccc3[nH]ncc3c2Cl)C1 (relative stereo) |
| 190 to 193 °C | CCCCC(=O)N[C@H]1CCC[C@@H](Oc2ccc3[nH]ncc3c2C)C1 (relative stereo) |
| 242 to 244 °C (dec.) | Cc1c(O[C@@H]2CCC[C@H](NC(=O)C3CCCC3)C2)ccc2[nH]ncc12 (relative stereo) |
| 140 to 142 °C | Cc1c(O[C@@H]2CCC[C@H](NCC3CCCC3)C2)ccc2[nH]ncc12 (relative stereo) |
| 164 to 166 °C | COc1ccc(CN[C@H]2CCC[C@@H](Oc3ccc4[nH]ncc4c3C)C2)cc1 (relative stereo) |
| 110 to 112 °C | Cc1c(O[C@H]2CCC[C@H](NC3CCCC3)C2)ccc2[nH]ncc12 (relative stereo) |
| 151 to 152 °C | c1cc2[nH]ncc2cc1OC1CCOCC1 [Example 44] |
| 151 to 153 °C | c1cc2[nH]ncc2cc1OC1CCOCC1 [Example 365] |
